Biological target: CDK2 (human) (UniProt P24941)
Assay: Enzyme Assay
Conditions: for inhibition: concentration not given here

Row | SMILES | inhibition [%] | Ki [nM]
1 | Nc1nc(NC2CCN(C(=O)C3CCc4ccccc4O3)CC2)sc1C(=O)c1c(F)cccc1F (centres undefined) | 6 | 
2 | Nc1nc(NC2CCN(C(=O)Cc3cc(F)c(F)c(F)c3)CC2)sc1C(=O)c1c(F)cccc1F | 57 | 
3 | Nc1nc(NC2CCN(C(=O)c3ccccc3OC(F)(F)F)CC2)sc1C(=O)c1c(F)cccc1F | -6 | 
4 | CCOCC(=O)N1CCC(Nc2nc(N)c(C(=O)c3c(F)cccc3F)s2)CC1 | 62 | 
5 | CN(C)N=Nc1ccccc1C(=O)N1CCC(Nc2nc(N)c(C(=O)c3c(F)cccc3F)s2)CC1 | 43 | 
6 | Nc1nc(NC2CCN(C(=O)c3cnnc4ccccc34)CC2)sc1C(=O)c1c(F)cccc1F | 28 | 
7 | CC(=O)C(O)(C(=O)N1CCC(Nc2nc(N)c(C(=O)c3c(F)cccc3F)s2)CC1)c1ccccc1 (centres undefined) | 26 | 
8 | CC(O)(CC(=O)N1CCC(Nc2nc(N)c(C(=O)c3c(F)cccc3F)s2)CC1)C(F)(F)F (centres undefined) | 64 | 
9 | COc1ccccc1/C=C\C(=O)N1CCC(Nc2nc(N)c(C(=O)c3c(F)cccc3F)s2)CC1 | 70 | 
10 | Nc1nc(NC2CCN(C(=O)C3CCC(=O)CC3)CC2)sc1C(=O)c1c(F)cccc1F | 48 | 
11 | C=CCCCCC(=O)N1CCC(Nc2nc(N)c(C(=O)c3c(F)cccc3F)s2)CC1 | 16 | 
12 | Nc1nc(NC2CCN(C(=O)/C=C/c3cccc(F)c3)CC2)sc1C(=O)c1c(F)cccc1F | 70 | 
13 | COC(=O)CCC(=O)N1CCC(Nc2nc(N)c(C(=O)c3c(F)cccc3F)s2)CC1 | 12 | 
14 | Nc1nc(NC2CCN(C(=O)/C=C/c3cccs3)CC2)sc1C(=O)c1c(F)cccc1F | 43 | 
15 | Cc1cccc(OCC(=O)N2CCC(Nc3nc(N)c(C(=O)c4c(F)cccc4F)s3)CC2)c1C | 40 | 
16 | Nc1nc(NC2CCN(C(=O)c3ccc(-n4cccc4)cc3)CC2)sc1C(=O)c1c(F)cccc1F | 69 | 
17 | CC(C)CCCC(=O)N1CCC(Nc2nc(N)c(C(=O)c3c(F)cccc3F)s2)CC1 | 71 | 
18 | Nc1nc(NC2CCN(C(=O)CCCN3C(=O)C=CC3=O)CC2)sc1C(=O)c1c(F)cccc1F | 43 | 
19 | C/C=C/CCC(=O)N1CCC(Nc2nc(N)c(C(=O)c3c(F)cccc3F)s2)CC1 | 71 | 
20 | Nc1nc(NC2CCN(C(=O)C/C=C/c3ccccc3)CC2)sc1C(=O)c1c(F)cccc1F | 29 | 
21 | Nc1nc(NC2CCN(C(=O)CC3=CCCCC3)CC2)sc1C(=O)c1c(F)cccc1F | 51 | 
22 | CC1CCC(C(=O)N2CCC(Nc3nc(N)c(C(=O)c4c(F)cccc4F)s3)CC2)CC1 (centres undefined) | 59 | 
23 | CC(=O)CCCC(=O)N1CCC(Nc2nc(N)c(C(=O)c3c(F)cccc3F)s2)CC1 | 68 | 
24 | Cc1cnc(C(=O)N2CCC(Nc3nc(N)c(C(=O)c4c(F)cccc4F)s3)CC2)cn1 | 72 | 
25 | Nc1nc(NC2CCN(C(=O)c3ccc4c(c3)C(=O)OC4=O)CC2)sc1C(=O)c1c(F)cccc1F | 53 | 
26 | C/C=C/CC(=O)N1CCC(Nc2nc(N)c(C(=O)c3c(F)cccc3F)s2)CC1 | 62 | 

Row | SMILES | inhibition [%] | Ki [nM]
27 | Nc1nc(NC2CCN(C(=O)c3ccc4c(c3)CCO4)CC2)sc1C(=O)c1c(F)cccc1F | 83 | 
28 | CC(C)c1cc(C(C)C)c(S(=O)(=O)N2CCC(Nc3nc(N)c(C(=O)c4c(F)cccc4F)s3)CC2)c(C(C)C)c1 | -17 | 
29 | Nc1nc(NC2CCN(C(=O)CCc3ccc4c(c3)OCO4)CC2)sc1C(=O)c1c(F)cccc1F | 49 | 
30 | CC(=O)CCCCC(=O)N1CCC(Nc2nc(N)c(C(=O)c3c(F)cccc3F)s2)CC1 | 49 | 
31 | CC1(CCC(=O)N2CCC(Nc3nc(N)c(C(=O)c4c(F)cccc4F)s3)CC2)SCCS1 | 78 | 
32 | COc1ccc(C(=O)N2CCC(Nc3nc(N)c(C(=O)c4c(F)cccc4F)s3)CC2)cc1OC | -23 | 
33 | Nc1nc(NC2CCN(C(=O)OCc3ccccc3)CC2)sc1C(=O)c1c(F)cccc1F | -32 | 
34 | COc1cccc(OCC(=O)N2CCC(Nc3nc(N)c(C(=O)c4c(F)cccc4F)s3)CC2)c1 | 61 | 
35 | COCCOC(=O)N1CCC(Nc2nc(N)c(C(=O)c3c(F)cccc3F)s2)CC1 | -11 | 
36 | Nc1nc(NC2CCN(C(=O)Cc3cc(F)cc(F)c3F)CC2)sc1C(=O)c1c(F)cccc1F | 44 | 
37 | CS(=O)(=O)CS(=O)(=O)N1CCC(Nc2nc(N)c(C(=O)c3c(F)cccc3F)s2)CC1 | -23 | 
38 | Nc1nc(NC2CCN(C(=O)C3(O)CC3)CC2)sc1C(=O)c1c(F)cccc1F | 46 | 
39 | CC1(C)OC(=O)CC1C(=O)N1CCC(Nc2nc(N)c(C(=O)c3c(F)cccc3F)s2)CC1 (centres undefined) | 79 | 
40 | CCCCC[C@H]1CC[C@H](C(=O)N2CCC(Nc3nc(N)c(C(=O)c4c(F)cccc4F)s3)CC2)CC1 | 14 | 
41 | Nc1nc(NC2CCN(C(=O)[C@@H]3CCC(=O)O3)CC2)sc1C(=O)c1c(F)cccc1F | 95 | 
42 | CC(C)=CC1C(C(=O)N2CCC(Nc3nc(N)c(C(=O)c4c(F)cccc4F)s3)CC2)C1(C)C (centres undefined) | 10 | 
43 | CC(=O)CC(=O)C(=O)N1CCC(Nc2nc(N)c(C(=O)c3c(F)cccc3F)s2)CC1 | 50 | 
44 | Cc1ccc(CCCC(=O)N2CCC(Nc3nc(N)c(C(=O)c4c(F)cccc4F)s3)CC2)c(C)c1 | 35 | 
45 | CCCCCC(=O)N1CCC(Nc2nc(N)c(C(=O)c3c(F)cccc3F)s2)CC1 | 36 | 
46 | Cc1ccc(/C=C/C(=O)N2CCC(Nc3nc(N)c(C(=O)c4c(F)cccc4F)s3)CC2)c(C)c1 | 31 | 
47 | Nc1nc(NC2CCN(C(=O)Cc3ccccn3)CC2)sc1C(=O)c1c(F)cccc1F | 80 | 
48 | Nc1nc(NC2CCN(C(=O)CC3Cc4ccccc4C3)CC2)sc1C(=O)c1c(F)cccc1F | 37 | 
49 | CCC[C@H]1CC[C@H](C(=O)N2CCC(Nc3nc(N)c(C(=O)c4c(F)cccc4F)s3)CC2)CC1 | 42 | 
50 | Cc1ccc(C)c(OCC(=O)N2CCC(Nc3nc(N)c(C(=O)c4c(F)cccc4F)s3)CC2)c1 | 26 | 
51 | Nc1nc(NC2CCN(C(=O)c3cc4cc(F)ccc4[nH]3)CC2)sc1C(=O)c1c(F)cccc1F | 36 | 
52 | Nc1nc(NC2CCN(S(=O)(=O)c3ccc(CCN4CCC(c5ccccc5)C4)nc3)CC2)sc1C(=O)c1c(F)cccc1F (centres undefined) |  | 1.8

Further lines, results first:

Row | inhibition [%] | Ki [nM] | SMILES
53 | 64 |  | Nc1nc(NC2CCN(C(=O)c3cc4ccccc4o3)CC2)sc1C(=O)c1c(F)cccc1F
54 | 21 |  | C[C@@H](C(=O)N1CCC(Nc2nc(N)c(C(=O)c3c(F)cccc3F)s2)CC1)c1ccccc1
55 | -5 |  | CC(=O)OC(C(=O)N1CCC(Nc2nc(N)c(C(=O)c3c(F)cccc3F)s2)CC1)c1ccccc1 (centres undefined)
56 | 30 |  | Nc1nc(NC2CCN(C(=O)c3ccc(F)c4ccccc34)CC2)sc1C(=O)c1c(F)cccc1F
57 | 18 |  | CC(Oc1ccc(O)cc1)C(=O)N1CCC(Nc2nc(N)c(C(=O)c3c(F)cccc3F)s2)CC1 (centres undefined)
58 | 70 |  | CC(C)C[C@H](O)C(=O)N1CCC(Nc2nc(N)c(C(=O)c3c(F)cccc3F)s2)CC1
59 | 54 |  | Nc1nc(NC2CCN(C(=O)C(O)c3c(F)cccc3F)CC2)sc1C(=O)c1c(F)cccc1F (centres undefined)
60 | 69 |  | CC(=O)Nc1cccc(C(=O)N2CCC(Nc3nc(N)c(C(=O)c4c(F)cccc4F)s3)CC2)c1
61 | 57 |  | Nc1nc(NC2CCN(C(=O)Cc3cccc(F)c3F)CC2)sc1C(=O)c1c(F)cccc1F
62 | 49 |  | C[C@H](CC(=O)N1CCC(Nc2nc(N)c(C(=O)c3c(F)cccc3F)s2)CC1)c1ccccc1
63 | 77 |  | CCCOc1ccc(C(=O)N2CCC(Nc3nc(N)c(C(=O)c4c(F)cccc4F)s3)CC2)cc1
64 | 61 |  | Cn1c(C(=O)N2CCC(Nc3nc(N)c(C(=O)c4c(F)cccc4F)s3)CC2)cc2ccccc21
65 | 19 |  | CC(C)Oc1ccc(C(=O)N2CCC(Nc3nc(N)c(C(=O)c4c(F)cccc4F)s3)CC2)cc1
66 | 72 |  | C[C@@H](O)CC(=O)N1CCC(Nc2nc(N)c(C(=O)c3c(F)cccc3F)s2)CC1
67 | 38 |  | Cc1ccc(CCCC(=O)N2CCC(Nc3nc(N)c(C(=O)c4c(F)cccc4F)s3)CC2)cc1
68 | 72 |  | COc1ccc(C(=O)N2CCC(Nc3nc(N)c(C(=O)c4c(F)cccc4F)s3)CC2)cc1F
69 | 13 |  | Nc1nc(NC2CCN(C(=O)CCc3ccc(O)cc3)CC2)sc1C(=O)c1c(F)cccc1F
70 | 76 |  | NC(=O)Nc1ccc(C(=O)N2CCC(Nc3nc(N)c(C(=O)c4c(F)cccc4F)s3)CC2)cc1
71 | 52 |  | Cc1ccc(F)cc1C(=O)N1CCC(Nc2nc(N)c(C(=O)c3c(F)cccc3F)s2)CC1

Row | inhibition [%] | Ki [nM] | SMILES
72 | 45 |  | Cc1cc(Cl)ccc1C(=O)N1CCC(Nc2nc(N)c(C(=O)c3c(F)cccc3F)s2)CC1
73 | -15 |  | CC(Oc1ccccc1)C(=O)N1CCC(Nc2nc(N)c(C(=O)c3c(F)cccc3F)s2)CC1 (centres undefined)
74 | 47 |  | Cc1cccc(Cl)c1C(=O)N1CCC(Nc2nc(N)c(C(=O)c3c(F)cccc3F)s2)CC1
75 | 11 |  | Nc1nc(NC2CCN(C(=O)c3cccc(F)c3F)CC2)sc1C(=O)c1c(F)cccc1F
76 | -2 |  | CCCCC(C)C(=O)N1CCC(Nc2nc(N)c(C(=O)c3c(F)cccc3F)s2)CC1 (centres undefined)
77 | 83 |  | Nc1nc(NC2CCN(C(=O)/C=C/c3ccccc3Cl)CC2)sc1C(=O)c1c(F)cccc1F
78 | 58 |  | Nc1nc(NC2CCN(C(=O)Cc3ccc(Cl)cc3)CC2)sc1C(=O)c1c(F)cccc1F
79 | 60 |  | Cc1cccc(C(=O)N2CCC(Nc3nc(N)c(C(=O)c4c(F)cccc4F)s3)CC2)n1
80 | 28 |  | COC(C(=O)N1CCC(Nc2nc(N)c(C(=O)c3c(F)cccc3F)s2)CC1)c1ccccc1 (centres undefined)
81 | 58 |  | COc1ccc(C(O)C(=O)N2CCC(Nc3nc(N)c(C(=O)c4c(F)cccc4F)s3)CC2)cc1 (centres undefined)
82 | 48 |  | CC(C(=O)N1CCC(Nc2nc(N)c(C(=O)c3c(F)cccc3F)s2)CC1)c1ccc(Cl)cc1 (centres undefined)
83 | 56 |  | CC(=O)Oc1cccc(C(=O)N2CCC(Nc3nc(N)c(C(=O)c4c(F)cccc4F)s3)CC2)c1
84 | 48 |  | CCC(O)C(=O)N1CCC(Nc2nc(N)c(C(=O)c3c(F)cccc3F)s2)CC1 (centres undefined)
85 | 37 |  | C=CC(C)C(=O)N1CCC(Nc2nc(N)c(C(=O)c3c(F)cccc3F)s2)CC1 (centres undefined)
86 | 24 |  | Nc1nc(NC2CCN(C(=O)/C=C/c3cccc(Cl)c3)CC2)sc1C(=O)c1c(F)cccc1F
87 | 61 |  | Nc1nc(NC2CCN(C(=O)[C@@H](O)c3ccccc3)CC2)sc1C(=O)c1c(F)cccc1F
88 | 10 |  | CN(C)[C@@H](Cc1ccccc1)C(=O)N1CCC(Nc2nc(N)c(C(=O)c3c(F)cccc3F)s2)CC1
89 | 68 |  | Nc1nc(NC2CCN(C(=O)c3ccc(Cl)cc3F)CC2)sc1C(=O)c1c(F)cccc1F

Reference: the Kinase Knowledgebase extract (Sharma et al. 2016)
